In ChEMBL document CHEMBL1201862, “PubChem BioAssay data set” (2004):
The source made the active and inactive calls.

Assays:
INS1 = assay: INS-1E survival protection against cytokine death – cell-based, luminescence, retest, dose response (AID 449756); type: functional; details: Rattus norvegicus;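 further: cell death triggered by IL-1 beta plus TNF-alpha plus IFN-gamma mixture; protective hits raise ATP signal compared with cytokine alone wells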
[1] = reduction of Shn3 3'UTR-driven luciferase in osteoblasts – cell-based, Clone20 osteoblasts, firefly luciferase, cherry-picked, dose response (AID 624132); type: functional;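 further: firefly luciferase luminescence from reporter carrying the Shn3 3'UTR in osteoblasts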
[2] = loss of viability in HepG2 cells – cell-based, CellTiter-Glo, cherry-picked, cytotoxicity control for Shn3 inhibitor project, dose response (AID 624134); type: functional
[3] = non-specific 3'UTR reporter inhibition in Clone20-Shn3RL – cell-based, Renilla luciferase, cherry-picked, counter-screen for Shn3 inhibitor project, dose response (AID 624133); type: functional
Large T antigen = Large T antigen (Simian virus 40, UniProt P03070); type: functional, Betapolyomavirus macacae;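 further: Confirmatory-stage PubChem screen for compounds that inhibit SV40 T antigen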
[4] = target: Luciferin 4-monooxygenase (Photinus pyralis, UniProt P08659); assay: inhibition of purified Photinus pyralis luciferase – biochemical, luminescence, dose response (AID 1891)
[5] = Luminescence Cell-Based Dose Confirmation HTS to Identify Inhibitors of Platelet Dense Granule Release. [Related pubchem assays: 1663 (Primary HTS), 1678 (Summary of Project)]; type: functional
[6] = target: Induced myeloid leukemia cell differentiation protein Mcl-1 (Homo sapiens, UniProt Q07820); type: functional
[7] = target: T1, Corticotropin-releasing factor receptor 2/Corticotropin-releasing factor-binding protein (Homo sapiens, UniProt P24387+Q13324); assay: Dose Response confirmation of uHTS hits for small molecule antagonists of the CRF-binding protein and CRF-R2 receptor complex.; type: functional; details: read-out: IC50_Mean
T1 sequence (Q13324 whole entry): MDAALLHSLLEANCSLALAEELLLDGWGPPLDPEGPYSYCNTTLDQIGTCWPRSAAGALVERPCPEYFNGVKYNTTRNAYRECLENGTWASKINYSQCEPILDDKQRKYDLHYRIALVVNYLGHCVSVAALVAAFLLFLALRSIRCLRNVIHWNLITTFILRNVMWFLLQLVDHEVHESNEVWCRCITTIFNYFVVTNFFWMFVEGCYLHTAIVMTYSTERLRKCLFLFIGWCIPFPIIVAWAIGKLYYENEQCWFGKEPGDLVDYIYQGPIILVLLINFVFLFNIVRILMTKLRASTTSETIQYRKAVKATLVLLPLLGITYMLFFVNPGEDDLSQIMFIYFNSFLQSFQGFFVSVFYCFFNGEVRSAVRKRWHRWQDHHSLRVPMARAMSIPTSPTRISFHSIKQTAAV
T1 sequence (P24387 whole entry): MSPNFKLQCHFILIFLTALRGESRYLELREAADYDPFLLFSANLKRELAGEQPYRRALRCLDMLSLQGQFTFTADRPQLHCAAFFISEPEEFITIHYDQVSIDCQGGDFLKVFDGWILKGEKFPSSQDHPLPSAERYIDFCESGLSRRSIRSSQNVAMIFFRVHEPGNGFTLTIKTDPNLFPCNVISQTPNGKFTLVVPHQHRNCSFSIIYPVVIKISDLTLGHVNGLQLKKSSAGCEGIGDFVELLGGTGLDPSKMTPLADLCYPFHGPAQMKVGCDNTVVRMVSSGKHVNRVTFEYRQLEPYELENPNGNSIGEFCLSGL

[8] = target: T1, Corticotropin-releasing factor receptor 2/Corticotropin-releasing factor-binding protein; assay: activators of CRF receptor 2 with binding protein – uHTS hits, confirmation (AID 602473); type: functional; details: read-out: EC50_Mean
[9] = Trypanosoma cruzi growth suppression in host cells – NIH3T3 host cells, beta-gal luminescence, confirmation (AID 2044); type: functional, cell-based;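 further: intracellular parasites grown in NIH/3T3 mouse fibroblasts as host cells; luminescent beta-galactosidase reporter signal from transgenic T. cruzi replicating inside host cells; inhibitors lower the luminescence signal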
[10] = NIH3T3 cell viability loss – ATP luminescence, mouse fibroblasts, counter-screen, dose response (AID 2010); type: functional, cell-based;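 further: cells exposed to compound for about 90 hours before reading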
cells = type: functional
BJ [11] = assay: BJ-TERT fibroblast viability loss – cell-based, RAS-independent, luminescence, dose response (AID 1933); type: functional, Homo sapiens; details: Homo sapiens, BJ
BJ [12] = assay: cells; type: functional, cell-based, Homo sapiens; details: Homo sapiens, BJ
BJ [13] = assay: BJ-TERT-LT-ST fibroblast viability loss – cell-based, RAS-independent, luminescence, dose response (AID 1935); type: functional, Homo sapiens; details: Homo sapiens, BJ;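 further: BJ fibroblasts immortalized with TERT plus LT and ST oncogenes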
[14] = DRD fibroblast viability loss – cell-based, non-viral oncogenic, luminescence, dose response (AID 1934); type: functional; details: Homo sapiens
Protein skinhead-1 = target: T2, Protein skinhead-1 (Caenorhabditis elegans, UniProt P34707); type: functional
T2 sequence (P34707 whole entry): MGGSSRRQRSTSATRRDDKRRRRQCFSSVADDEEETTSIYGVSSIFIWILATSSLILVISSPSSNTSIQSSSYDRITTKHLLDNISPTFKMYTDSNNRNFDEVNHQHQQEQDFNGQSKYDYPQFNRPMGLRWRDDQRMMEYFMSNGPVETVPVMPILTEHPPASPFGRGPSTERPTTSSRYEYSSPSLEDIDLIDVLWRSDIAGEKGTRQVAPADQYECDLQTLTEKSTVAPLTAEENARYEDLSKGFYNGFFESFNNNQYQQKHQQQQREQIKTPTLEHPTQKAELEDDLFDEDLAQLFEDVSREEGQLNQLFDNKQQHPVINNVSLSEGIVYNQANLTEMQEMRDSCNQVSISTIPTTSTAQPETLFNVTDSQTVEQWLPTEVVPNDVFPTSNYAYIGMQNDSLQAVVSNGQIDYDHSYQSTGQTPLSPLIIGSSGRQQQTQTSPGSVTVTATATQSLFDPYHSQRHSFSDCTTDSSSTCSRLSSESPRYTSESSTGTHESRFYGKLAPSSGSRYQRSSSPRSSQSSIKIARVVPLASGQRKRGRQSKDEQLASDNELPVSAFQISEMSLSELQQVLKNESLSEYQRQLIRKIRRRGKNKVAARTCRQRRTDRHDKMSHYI

Cytochrome P450 2C9 = Cytochrome P450 2C9 (Homo sapiens, UniProt P11712)
Cytochrome P450 2C9, sequence (P11712 whole entry): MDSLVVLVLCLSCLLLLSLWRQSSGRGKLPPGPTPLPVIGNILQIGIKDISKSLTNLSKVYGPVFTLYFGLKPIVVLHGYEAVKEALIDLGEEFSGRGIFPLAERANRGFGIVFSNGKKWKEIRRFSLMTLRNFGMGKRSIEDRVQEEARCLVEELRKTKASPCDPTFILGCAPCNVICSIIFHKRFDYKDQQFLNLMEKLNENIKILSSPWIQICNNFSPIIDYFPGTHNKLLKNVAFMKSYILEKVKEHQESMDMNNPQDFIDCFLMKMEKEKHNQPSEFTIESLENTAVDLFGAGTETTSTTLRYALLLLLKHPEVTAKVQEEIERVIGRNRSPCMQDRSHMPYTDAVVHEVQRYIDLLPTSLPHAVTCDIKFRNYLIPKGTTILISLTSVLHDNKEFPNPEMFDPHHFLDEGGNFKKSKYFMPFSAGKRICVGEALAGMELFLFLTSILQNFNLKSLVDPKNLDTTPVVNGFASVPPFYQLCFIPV

Luciferin 4-monooxygenase, sequence (P08659 whole entry): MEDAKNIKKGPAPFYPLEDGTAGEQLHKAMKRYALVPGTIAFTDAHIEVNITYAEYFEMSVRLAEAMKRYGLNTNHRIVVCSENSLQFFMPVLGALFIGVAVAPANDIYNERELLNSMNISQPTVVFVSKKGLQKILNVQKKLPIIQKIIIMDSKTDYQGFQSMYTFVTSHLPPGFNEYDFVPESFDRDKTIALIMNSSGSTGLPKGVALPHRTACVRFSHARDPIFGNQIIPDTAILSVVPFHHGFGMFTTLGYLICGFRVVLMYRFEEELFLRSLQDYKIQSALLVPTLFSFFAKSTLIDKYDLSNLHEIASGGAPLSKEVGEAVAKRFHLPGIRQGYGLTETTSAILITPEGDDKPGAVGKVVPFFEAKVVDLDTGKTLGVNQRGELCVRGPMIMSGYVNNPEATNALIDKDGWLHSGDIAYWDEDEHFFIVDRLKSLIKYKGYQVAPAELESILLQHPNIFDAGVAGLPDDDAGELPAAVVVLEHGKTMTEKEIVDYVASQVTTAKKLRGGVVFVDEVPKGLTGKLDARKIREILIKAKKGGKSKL
Large T antigen, sequence (P03070 whole entry): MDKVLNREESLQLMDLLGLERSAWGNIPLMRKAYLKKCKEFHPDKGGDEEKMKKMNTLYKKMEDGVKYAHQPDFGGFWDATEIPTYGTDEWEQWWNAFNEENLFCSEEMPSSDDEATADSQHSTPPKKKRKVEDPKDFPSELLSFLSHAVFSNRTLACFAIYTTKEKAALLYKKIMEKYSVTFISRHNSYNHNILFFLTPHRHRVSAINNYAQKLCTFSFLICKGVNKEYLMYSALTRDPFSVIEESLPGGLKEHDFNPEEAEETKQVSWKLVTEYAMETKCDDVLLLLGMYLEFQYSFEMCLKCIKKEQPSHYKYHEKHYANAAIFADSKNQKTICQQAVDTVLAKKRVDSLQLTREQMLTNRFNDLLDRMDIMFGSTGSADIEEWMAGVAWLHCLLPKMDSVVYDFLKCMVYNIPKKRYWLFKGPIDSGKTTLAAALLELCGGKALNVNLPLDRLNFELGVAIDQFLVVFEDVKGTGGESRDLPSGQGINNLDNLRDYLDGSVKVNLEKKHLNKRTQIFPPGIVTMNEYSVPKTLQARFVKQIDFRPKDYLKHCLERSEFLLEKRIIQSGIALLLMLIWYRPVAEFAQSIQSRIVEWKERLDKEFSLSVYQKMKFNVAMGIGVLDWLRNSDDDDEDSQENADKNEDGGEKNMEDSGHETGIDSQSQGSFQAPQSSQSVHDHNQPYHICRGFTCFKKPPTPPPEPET
Induced myeloid leukemia cell differentiation protein Mcl-1, sequence (Q07820 whole entry): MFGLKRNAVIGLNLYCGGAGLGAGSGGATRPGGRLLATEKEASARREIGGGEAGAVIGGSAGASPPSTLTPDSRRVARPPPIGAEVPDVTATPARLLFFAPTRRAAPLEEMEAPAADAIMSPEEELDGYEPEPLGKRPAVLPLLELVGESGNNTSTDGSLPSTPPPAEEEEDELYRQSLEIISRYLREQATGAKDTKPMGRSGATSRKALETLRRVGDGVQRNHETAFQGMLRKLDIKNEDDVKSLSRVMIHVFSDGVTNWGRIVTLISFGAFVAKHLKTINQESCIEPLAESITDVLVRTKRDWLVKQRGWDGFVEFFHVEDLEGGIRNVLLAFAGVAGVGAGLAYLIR

COCCN(C(=O)COC(=O)C1CCC(C(C)(C)C)CC1)c1c(N)n(Cc2ccccc2)c(=O)[nH]c1=O (configuration not stated)
AC50 (INS1): 2.34 µM (active)
AC50 [1]: 5.15 µM (active)
AC50 [2]: 43.1 µM (active)
AC50 [3]: 4.83 µM (active)

N#C/C(=C\c1ccccc1OCc1ccc(C(=O)O)cc1)C(=O)Nc1ccc(O)cc1
IC50 (Large T antigen): 11.5 µM (active)

CCC(=O)c1ccc(OCC(O)Cn2c(C)nc3ccccc32)cc1 (configuration not stated)
AC50 [1]: 2.28 µM (active)
AC50 [2]: 49.9 µM (active)
AC50 [3]: 14.1 µM (active)

COc1ccccc1NC(=O)NC1(C(=O)N2CCCCCC2)CCCCC1
EC50 [4]: > 112 µM (not active)
EC50 [5]: > 112 µM (not active)

COc1ccc(C(=O)CSc2nnc(-c3ccco3)c(-c3ccco3)n2)cc1
IC50 [6]: 6.58 µM (active)

Cc1cnc([N+](=O)[O-])n1CCOC(=O)NC(=O)c1cccc(F)c1
EC50 [4]: > 112 µM (not active)
EC50 [5]: 18.4 µM (active)

CCN1C(=O)/C(=C\C=C\c2ccccc2[N+](=O)[O-])SC1=S
IC50 [7]: > 47.1 µM (inactive)
EC50 [8]: > 53 µM (inactive)

Cc1cc(NC(=O)c2cc([N+](=O)[O-])cc([N+](=O)[O-])c2)no1
EC50 [9]: 0.287 µM (active)
EC50 [10]: > 60 µM (not active)
IC50 (cells): 13.3 µM (active)

O=C(Cc1cccs1)Nc1nc2c(ccc3ccccc32)s1
IC50 [7]: > 47.1 µM (inactive)
EC50 [8]: > 53 µM (inactive)

COc1cc2c(cc1OC)-c1cc(Nc3ccccc3)nc(=O)n1CC2
EC50 [4]: > 112 µM (not active)
EC50 [5]: 1.63 µM (active)

CCN(C(=O)CN1C(=O)NC(c2ccccc2)(c2ccccc2)C1=O)c1ccccc1
EC50 [4]: > 112 µM (not active)
EC50 [5]: > 112 µM (not active)

Oc1ccc(N=Nc2ccc3c(c2)OCO3)c2ccccc12
EC50 (BJ [11]): 2.85 µM (active)
EC50 (BJ [12]): 10.9 µM (active)
EC50 (BJ [13]): 6.46 µM (inconclusive)
EC50 [14]: 19.4 µM (inconclusive)

O=C(Nc1nccs1)c1ccc2ccccc2c1
IC50 (cells): 6.75 µM (active)
IC50 (Protein skinhead-1): 20.8 µM (active)

CCNC(=O)c1c(NC(C)=O)sc2c1CCCC2
EC50 [4]: > 112 µM (not active)
EC50 [5]: 15.2 µM (active)
AC50 (Cytochrome P450 2C9): 17.8 µM (inconclusive)

Cc1ccc(S(=O)(=O)CCC(=O)OCC(=O)NCC(=O)Nc2cccc(C)c2C)cc1
EC50 [4]: > 112 µM (not active)
EC50 [5]: > 112 µM (not active)

Cc1ccc(C(=O)OCC(=O)c2cc(C)n(CC3CCCO3)c2C)cc1 (configuration not stated)
IC50 [7]: > 47.1 µM (inactive)
EC50 [8]: > 53 µM (inactive)

CC(C)c1ccccc1-n1c(SCC(=O)N2CCc3ccccc3C2)nc2ccccc2c1=O
AC50 (INS1): 2.44 µM (active)
AC50 [1]: 2.99 µM (active)
AC50 [2]: 55.4 µM (active)
AC50 [3]: 3.83 µM (active)

N#Cc1c(-c2ccco2)c2c([nH]c1=S)CCCC2
IC50 (Large T antigen): 37.7 µM (active)
